Measurements published in PubChem BioAssay AID1963960 (Molecular Pharmacology Branch, DTP, NCI, 2024).

Tested on: MDA-MB-468 spheroids with HUVEC/MSC, viability
Assay: Anticancer human tumor MDA-MB-468 cell line growth inhibition [PI3K];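 also: spheroids exposed to agents for seven days before readout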;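 as to viability, T/C: 100% = DMSO vehicle control viability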
Settings: for IC50: curve of first compound; for viability, T/C: stronger effect = lower value
In short: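 Stroma-containing spheroids: tumor line, pooled-donor HUVEC, hMSC. Treatments: targeted agents with PI3K inhibitors. Dosing: clinically relevant, half-log spacing, 10 microM ceiling without known Cmax. Read-out: cell viability.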

[1] = second compound 0.00316 µM, first compound 0.0316 µM
[2] = second compound 0.00316 µM, first compound 0.1 µM
[3] = second compound 0.00316 µM, first compound 0.316 µM
[4] = second compound 0.00316 µM, first compound 1 µM
[5] = second compound 0.00316 µM, first compound 3.16 µM
[6] = second compound 0.00316 µM, first compound 10 µM
[7] = second compound 0.01 µM, first compound 0.0316 µM
[8] = second compound 0.01 µM, first compound 0.1 µM
[9] = second compound 0.01 µM, first compound 0.316 µM
[10] = second compound 0.01 µM, first compound 1 µM
[11] = second compound 0.01 µM, first compound 3.16 µM
[12] = second compound 0.01 µM, first compound 10 µM
[13] = second compound 0.0316 µM, first compound 0.0316 µM
[14] = second compound 0.0316 µM, first compound 0.1 µM
[15] = second compound 0.0316 µM, first compound 0.316 µM
[16] = second compound 0.0316 µM, first compound 1 µM
[17] = second compound 0.0316 µM, first compound 3.16 µM
[18] = second compound 0.0316 µM, first compound 10 µM
[19] = second compound 0.1 µM, first compound 0.0316 µM
[20] = second compound 0.1 µM, first compound 0.1 µM
[21] = second compound 0.1 µM, first compound 0.316 µM
[22] = second compound 0.1 µM, first compound 1 µM
[23] = second compound 0.1 µM, first compound 3.16 µM
[24] = second compound 0.1 µM, first compound 10 µM
[25] = second compound 0.316 µM, first compound 0.0316 µM
[26] = second compound 0.316 µM, first compound 0.1 µM
[27] = second compound 0.316 µM, first compound 0.316 µM
[28] = second compound 0.316 µM, first compound 1 µM
[29] = second compound 0.316 µM, first compound 3.16 µM
[30] = second compound 0.316 µM, first compound 10 µM
[31] = second compound 1 µM, first compound 0.0316 µM
[32] = second compound 1 µM, first compound 0.1 µM
[33] = second compound 1 µM, first compound 0.316 µM
[34] = second compound 1 µM, first compound 1 µM
[35] = second compound 1 µM, first compound 3.16 µM
[36] = second compound 1 µM, first compound 10 µM

`CCCS(=O)(=O)Nc1ccc(F)c(C(=O)c2c[nH]c3ncc(-c4ccc(Cl)cc4)cc23)c1F` + COc1c(OCCCN2CCOCC2)ccc2c3n(c(=NC(=O)c4cnc(N)nc4)nc12)CCN3 showed an IC50 (second compound 0.00316 µM) of 5170 nM, an IC50 (second compound 0.01 µM) of 5380 nM and an IC50 (second compound 0.0316 µM) of 4500 nM. For the same molecule, the IC50 (second compound 0.1 µM) was 2110 nM, the IC50 (second compound 0.316 µM) was < 31.6 nM and the IC50 (second compound 1 µM) was < 31.6 nM. For the same molecule, the viability, T/C [1] was 84.8%, the viability, T/C [2] was 102% and the viability, T/C [3] was 84.6%. It also gave a viability, T/C [4] of 102%, a viability, T/C [5] of 74.1% and a viability, T/C [6] of 17.9%. The viability, T/C [7] was 84.2%, the viability, T/C [8] was 82.3% and the viability, T/C [9] was 93.9%. It also gave a viability, T/C [10] of 84.3%, a viability, T/C [11] of 75.6% and a viability, T/C [12] of 20%. For the same molecule, the viability, T/C [13] was 74.1%, the viability, T/C [14] was 78.2% and the viability, T/C [15] was 76.5%. It also gave a viability, T/C [16] of 74.3%, a viability, T/C [17] of 64.9% and a viability, T/C [18] of 16.2%. The viability, T/C [19] was 55.8%, the viability, T/C [20] was 56.5% and the viability, T/C [21] was 64.7%. It also gave a viability, T/C [22] of 59.1%, a viability, T/C [23] of 45.2% and a viability, T/C [24] of 12.3%. It also gave a viability, T/C [25] of 28.1%, a viability, T/C [26] of 29.7% and a viability, T/C [27] of 29.1%. For the same molecule, the viability, T/C [28] was 27.6%, the viability, T/C [29] was 26.6% and the viability, T/C [30] was 8.09%. The viability, T/C [31] was 4.14%, the viability, T/C [32] was 4.88% and the viability, T/C [33] was 4.04%. It also gave a viability, T/C [34] of 5.95%, a viability, T/C [35] of 5.41% and a viability, T/C [36] of 3.73%.
With `C[C@@H](NC(=O)c1ncnc(N)c1Cl)c1ncc(C(=O)Nc2cc(C(F)(F)F)c(Cl)cn2)s1` + COc1c(OCCCN2CCOCC2)ccc2c3n(c(=NC(=O)c4cnc(N)nc4)nc12)CCN3 the IC50 (second compound 0.00316 µM) was > 10000 nM, the IC50 (second compound 0.01 µM) was > 10000 nM and the IC50 (second compound 0.0316 µM) was > 10000 nM. The IC50 (second compound 0.1 µM) was > 10000 nM, the IC50 (second compound 0.316 µM) was < 31.6 nM and the IC50 (second compound 1 µM) was < 31.6 nM. It also gave a viability, T/C [1] of 83.1%, a viability, T/C [2] of 91.9% and a viability, T/C [3] of 93.5%. The viability, T/C [4] was 96.2%, the viability, T/C [5] was 86.4% and the viability, T/C [6] was 76.4%. It also gave a viability, T/C [7] of 87%, a viability, T/C [8] of 101% and a viability, T/C [9] of 87.4%. The viability, T/C [10] was 101%, the viability, T/C [11] was 99.7% and the viability, T/C [12] was 71.4%. For the same molecule, the viability, T/C [13] was 79.7%, the viability, T/C [14] was 79.2% and the viability, T/C [15] was 91.6%. It also gave a viability, T/C [16] of 75.9%, a viability, T/C [17] of 74.5% and a viability, T/C [18] of 61.6%. The viability, T/C [19] was 51.1%, the viability, T/C [20] was 52.5% and the viability, T/C [21] was 57.5%. It also gave a viability, T/C [22] of 66.6%, a viability, T/C [23] of 59.9% and a viability, T/C [24] of 56.6%. The viability, T/C [25] was 28.3%, the viability, T/C [26] was 27.8% and the viability, T/C [27] was 30%. For the same molecule, the viability, T/C [28] was 37.3%, the viability, T/C [29] was 36.3% and the viability, T/C [30] was 31.9%. The viability, T/C [31] was 5.16%, the viability, T/C [32] was 4.86% and the viability, T/C [33] was 5.09%. It also gave a viability, T/C [34] of 7.06%, a viability, T/C [35] of 7.47% and a viability, T/C [36] of 5.33%.
In the case of `Cn1ncnc1[C@H]1c2n[nH]c(=O)c3cc(F)cc(c23)N[C@@H]1c1ccc(F)cc1` + COc1c(OCCCN2CCOCC2)ccc2c3n(c(=NC(=O)c4cnc(N)nc4)nc12)CCN3, the IC50 (second compound 0.00316 µM) is reported as > 100 nM, the IC50 (second compound 0.01 µM) is reported as > 100 nM and the IC50 (second compound 0.0316 µM) is reported as 83.4 nM. The IC50 (second compound 0.1 µM) was 23.1 nM, the IC50 (second compound 0.316 µM) was < 0.316 nM and the IC50 (second compound 1 µM) was < 0.316 nM. For the same molecule, the viability, T/C (second compound 0.00316 µM, first compound 0.000316 µM) was 103%, the viability, T/C (second compound 0.00316 µM, first compound 0.001 µM) was 89% and the viability, T/C (second compound 0.00316 µM, first compound 0.00316 µM) was 83.8%. It also gave a viability, T/C (second compound 0.00316 µM, first compound 0.01 µM) of 79.1%, a viability, T/C [1] of 69.4% and a viability, T/C [2] of 57.9%. For the same molecule, the viability, T/C (second compound 0.01 µM, first compound 0.000316 µM) was 79.7%, the viability, T/C (second compound 0.01 µM, first compound 0.001 µM) was 89.8% and the viability, T/C (second compound 0.01 µM, first compound 0.00316 µM) was 92%. The viability, T/C (second compound 0.01 µM, first compound 0.01 µM) was 74.7%, the viability, T/C [7] was 70.5% and the viability, T/C [8] was 50.1%. The viability, T/C (second compound 0.0316 µM, first compound 0.000316 µM) was 75.9%, the viability, T/C (second compound 0.0316 µM, first compound 0.001 µM) was 84.6% and the viability, T/C (second compound 0.0316 µM, first compound 0.00316 µM) was 70.2%. It also gave a viability, T/C (second compound 0.0316 µM, first compound 0.01 µM) of 67.1%, a viability, T/C [13] of 57.6% and a viability, T/C [14] of 48.4%. For the same molecule, the viability, T/C (second compound 0.1 µM, first compound 0.000316 µM) was 60.8%, the viability, T/C (second compound 0.1 µM, first compound 0.001 µM) was 65.1% and the viability, T/C (second compound 0.1 µM, first compound 0.00316 µM) was 63.4%. It also gave a viability, T/C (second compound 0.1 µM, first compound 0.01 µM) of 55.3%, a viability, T/C [19] of 48% and a viability, T/C [20] of 34.7%. It also gave a viability, T/C (second compound 0.316 µM, first compound 0.000316 µM) of 29.5%, a viability, T/C (second compound 0.316 µM, first compound 0.001 µM) of 27.4% and a viability, T/C (second compound 0.316 µM, first compound 0.00316 µM) of 26.4%. The viability, T/C (second compound 0.316 µM, first compound 0.01 µM) was 26.9%, the viability, T/C [25] was 26.7% and the viability, T/C [26] was 17.5%. For the same molecule, the viability, T/C (second compound 1 µM, first compound 0.000316 µM) was 3.21%, the viability, T/C (second compound 1 µM, first compound 0.001 µM) was 2.83% and the viability, T/C (second compound 1 µM, first compound 0.00316 µM) was 2.99%. It also gave a viability, T/C (second compound 1 µM, first compound 0.01 µM) of 4.15%, a viability, T/C [31] of 3.68% and a viability, T/C [32] of 2.25%.
